Measurements: patent US11339171B2, “MDM2 inhibitors” (Gan & Lee Pharmaceuticals, priority 2017, dated 2022)

How the values were obtained:
MDM2 = target: T1, MDM2 (Homo sapiens, UniProt Q00987); experiment: Inhibition test of MDM2-P53 (GST-MDM2, Biotin-P53, Anti-GST-Tb, SA-XL665); format: binding; settings: for inhibitory effect on MDM2 compared with positive control compound HDM201: labels are Example numbers, the compounds with S-configuration are meant
T1 construct: made in house
Procedure, shortened: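 HTRF-type assay using 4 nM GST-MDM2 (final), Biotin-P53, SA-XL665 and anti-GST-Tb in PBS with 0.1% BSA, 5 mM DTT and 1 mM AEBSF. Compounds in 5-fold serial dilutions over twelve points; incubation 90 min at 25° C with shaking before plate-reader read-out.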

[1] = tested on: human osteosarcoma cell line SJSA-1; experiment: Inhibition of proliferation of human osteosarcoma cell line SJSA-1 (DAPI staining, In Cell Analyzer); settings: for inhibitory effect on human osteosarcoma cell line SJSA-1 compared with positive control compound HDM201: labels are Example numbers, the compounds with S-configuration are meant; for IC50: Homo sapiens, SJSA-1, 72 h, read-out: IC50 (nM), inhibitory activity on proliferation of human osteosarcoma cell line SJSA-1, SJSA-1, incubated 72 h

T1 sequence (Q00987 whole entry): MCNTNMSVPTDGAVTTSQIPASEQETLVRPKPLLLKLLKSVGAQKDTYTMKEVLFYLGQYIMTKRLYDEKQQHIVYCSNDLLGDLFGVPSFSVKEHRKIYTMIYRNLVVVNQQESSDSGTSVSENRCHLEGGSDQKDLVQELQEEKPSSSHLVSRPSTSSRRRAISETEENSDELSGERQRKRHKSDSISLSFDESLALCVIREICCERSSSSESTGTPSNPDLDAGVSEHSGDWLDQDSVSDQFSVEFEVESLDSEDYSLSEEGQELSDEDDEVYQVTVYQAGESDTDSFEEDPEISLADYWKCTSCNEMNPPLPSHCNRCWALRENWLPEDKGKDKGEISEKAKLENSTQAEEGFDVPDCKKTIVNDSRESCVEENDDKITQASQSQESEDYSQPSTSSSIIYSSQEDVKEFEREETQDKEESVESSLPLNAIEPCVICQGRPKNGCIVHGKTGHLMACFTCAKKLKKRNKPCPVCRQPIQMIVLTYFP

## COc1ncc(-c2nc3c(n2C(C)C)C2(C(=O)Nc4cc(Cl)ccc42)N(c2cc(F)cc(Cl)c2)C3=O)c(OC)n1 (centres unmarked) [Example 45, 6-chloro-5′-(3-chloro-5-fluorophenyl)-2′-(2,4-dimethoxypyrimidin-5-yl)-3′-isopropyl-3′H-spiro[dihydroindole-3,4′-pyrrolo[3,4-d]imidazole]-2,6′(5′H)-dione]
MDM2
  inhibitory effect on MDM2 compared with positive control compound HDM201: better
[1]
  inhibitory effect on human osteosarcoma cell line SJSA-1 compared with positive control compound HDM201: better

## COc1cc(N)ccc1-c1nc2c(n1C(C)C)C1(C(=O)Nc3cc(Cl)ccc31)N(c1cc(Cl)ccc1C)C2=O (centres unmarked) [Example 49, 2′-(4-amino-2-methoxyphenyl)-6-chloro-5′-(5-chloro-2-methylphenyl)-3′-isopropyl-3′H-spiro[dihydroindole-3,4′-pyrrolo[3,4-d]imidazole]-2,6′(5′H)-dione]
MDM2
  inhibitory effect on MDM2 compared with positive control compound HDM201: better
[1]
  inhibitory effect on human osteosarcoma cell line SJSA-1 compared with positive control compound HDM201: better

## COc1ccc(-c2nc3c(n2C(C)C)C2(C(=O)Nc4cc(Cl)ccc42)N(c2cc(Cl)cnc2C)C3=O)c(OC)c1 (centres unmarked) [Example 61, 6-chloro-5′-(5-chloro-2-methylpyridin-3-yl)-2′-(2,4-dimethoxyphenyl)-3′-isopropyl-3′H-spiro[dihydroindole-3,4′-pyrrolo[3,4-d]imidazole]-2,6′(5′H)-dione]
MDM2
  inhibitory effect on MDM2 compared with positive control compound HDM201: better
[1]
  inhibitory effect on human osteosarcoma cell line SJSA-1 compared with positive control compound HDM201: better

## COc1cc(OC(C)C)ncc1-c1nc2c(n1C(C)C)C1(C(=O)Nc3cc(Cl)ccc31)N(c1cc(Cl)ccc1C)C2=O (centres unmarked) [Example 69, 6-chloro-5′-(5-chloro-2-methylphenyl)-2′-(6-isopropoxy-4-methoxypyridin-3-yl)-3′-isopropyl-3′H-spiro[dihydroindole-3,4′-pyrrolo[3,4-d]imidazole]-2,6′(5′H)-dione]
MDM2
  inhibitory effect on MDM2 compared with positive control compound HDM201: better
[1]
  inhibitory effect on human osteosarcoma cell line SJSA-1 compared with positive control compound HDM201: better

## CCOc1cc(OC)c(-c2nc3c(n2C(C)C)C2(C(=O)Nc4cc(Cl)ccc42)N(c2cc(Cl)ccc2C)C3=O)cn1 (centres unmarked) [Example 72, 6-chloro-5′-(5-chloro-2-methylphenyl)-2′-(6-ethoxy-4-methoxypyridin-3-yl)-3′-isopropyl-3′H-spiro[dihydroindole-3,4′-pyrrolo[3,4-d]imidazole]-2,6′(5′H)-dione]
MDM2
  inhibitory effect on MDM2 compared with positive control compound HDM201: better
[1]
  inhibitory effect on human osteosarcoma cell line SJSA-1 compared with positive control compound HDM201: better

## COc1cc(N)c(C)cc1-c1nc2c(n1C(C)C)C1(C(=O)Nc3cc(Cl)ccc31)N(c1cc(Cl)ccc1C)C2=O (centres unmarked) [Example 74, 2′-(4-amino-2-methoxy-5-methylphenyl)-6-chloro-5′-(5-chloro-2-methylphenyl)-3′-isopropyl-3′H-spiro[dihydroindole-3,4′-pyrrolo[3,4-d]imidazole]-2,6′(5′H)-dione]
MDM2
  inhibitory effect on MDM2 compared with positive control compound HDM201: better
[1]
  inhibitory effect on human osteosarcoma cell line SJSA-1 compared with positive control compound HDM201: better

## COc1cc(N)c(F)cc1-c1nc2c(n1C(C)C)C1(C(=O)Nc3cc(Cl)ccc31)N(c1cc(Cl)ccc1C)C2=O (centres unmarked) [Example 75, 2′-(4-amino-5-fluoro-2-methoxyphenyl)-6-chloro-5′-(5-chloro-2-methylphenyl)-3′-isopropyl-3′H-spiro[dihydroindole-3,4′-pyrrolo[3,4-d]imidazole]-2,6′(5′H)-dione]
MDM2
  inhibitory effect on MDM2 compared with positive control compound HDM201: better
[1]
  inhibitory effect on human osteosarcoma cell line SJSA-1 compared with positive control compound HDM201: better

## COc1cc(N(C)C)c(F)cc1-c1nc2c(n1C(C)C)C1(C(=O)Nc3cc(Cl)ccc31)N(c1cc(Cl)ccc1C)C2=O (centres unmarked) [Example 78]
MDM2
  inhibitory effect on MDM2 compared with positive control compound HDM201: better
[1]
  inhibitory effect on human osteosarcoma cell line SJSA-1 compared with positive control compound HDM201: better

## COc1nc(N(C)C)ncc1-c1nc2c(n1C(C)C)C1(C(=O)Nc3cc(Cl)ccc31)N(c1cc(Cl)ccc1C)C2=O (centres unmarked) [Example 82, 6-chloro-5′-(5-chloro-2-methylphenyl)-2′-(2-(dimethylamino)-4-methoxypyrimidin-5-yl)-3′-isopropyl-3′H-spiro[dihydroindole-3,4′-pyrrolo[3,4-d]imidazole]-2,6′(5′H)-dione]
MDM2
  inhibitory effect on MDM2 compared with positive control compound HDM201: better
[1]
  inhibitory effect on human osteosarcoma cell line SJSA-1 compared with positive control compound HDM201: better

## COc1ccc(C(=O)O)cc1-c1nc2c(n1C(C)C)C1(C(=O)Nc3cc(Cl)ccc31)N(c1cc(Cl)ccc1C)C2=O (centres unmarked) [Example 84, 3-(6-chloro-5′-(5-chloro-2-methylphenyl)-3′-isopropyl-2,6′-dioxo-5′,6′-dihydro-3′H-spiro[dihydroindole-3,4′-pyrrolo[3,4-d]imidazole]-2′-yl)-4-methoxybenzoic acid]
MDM2
  IC50: 3.78 nM
[1]
  IC50: 2610 nM

## COc1cc(OC)c(-c2nc3c(n2C(C)C)C2(C(=O)Nc4cc(Cl)ccc42)N(c2cc(Cl)ccc2C)C3=O)cc1F (centres unmarked) [Example 92, 6-chloro-5′-(5-chloro-2-methylphenyl)-2′-(5-fluoro-2,4-dimethoxyphenyl)-3′-isopropyl-3′H-spiro[dihydroindole-3,4′-pyrrolo[3,4-d]imidazole]-2,6′(5′H)-dione]
MDM2
  inhibitory effect on MDM2 compared with positive control compound HDM201: better
[1]
  inhibitory effect on human osteosarcoma cell line SJSA-1 compared with positive control compound HDM201: better

## CCOc1cc(OC)c(-c2nc3c(n2C(C)C)C2(C(=O)Nc4cc(Cl)ccc42)N(c2cc(Cl)cnc2C)C3=O)cn1 (centres unmarked) [Example 96, 6-chloro-5′-(5-chloro-2-methylpyridin-3-yl)-2′-(6-ethoxy-4-methoxypyridin-3-yl)-3′-isopropyl-3′H-spiro[dihydroindole-3,4′-pyrrolo[3,4-d]imidazole]-2,6′(5′H)-dione]
MDM2
  inhibitory effect on MDM2 compared with positive control compound HDM201: better
[1]
  inhibitory effect on human osteosarcoma cell line SJSA-1 compared with positive control compound HDM201: better

## CCOc1cc(OC)c(-c2nc3c(n2C(C)C)C2(C(=O)Nc4cc(Cl)ccc42)N(c2cc(Cl)ccc2F)C3=O)cn1 (centres unmarked) [Example 98, 6-chloro-5′-(5-chloro-2-fluorophenyl)-2′-(6-ethoxy-4-methoxypyridin-3-yl)-3′-isopropyl-3′H-spiro[dihydroindole-3,4′-pyrrolo[3,4-d]imidazole]-2,6′(5′H)-dione]
MDM2
  inhibitory effect on MDM2 compared with positive control compound HDM201: better
[1]
  inhibitory effect on human osteosarcoma cell line SJSA-1 compared with positive control compound HDM201: better

## CCOc1cc(OC)c(-c2nc3c(n2C(C)C)C2(C(=O)Nc4cc(Cl)ccc42)N(c2cccc(Cl)c2)C3=O)cn1 (centres unmarked) [Example 102, 6-chloro-5′-(3-chlorophenyl)-2′-(6-ethoxy-4-methoxypyridin-3-yl)-3′-isopropyl-3′H-spiro[dihydroindole-3,4′-pyrrolo[3,4-d]imidazole]-2,6′(5′H)-dione]
MDM2
  inhibitory effect on MDM2 compared with positive control compound HDM201: better
[1]
  inhibitory effect on human osteosarcoma cell line SJSA-1 compared with positive control compound HDM201: better

## COc1cc(C2CC2)ncc1-c1nc2c(n1C(C)C)C1(C(=O)Nc3cc(Cl)ccc31)N(c1cc(Cl)ccc1C)C2=O (centres unmarked) [Example 103, 6-chloro-5′-(5-chloro-2-methylphenyl)-2′-(6-cyclopropyl-4-methoxypyridin-3-yl)-3′-isopropyl-3′H-spiro[dihydroindole-3,4′-pyrrolo[3,4-d]imidazole]-2,6′(5′H)-dione]
MDM2
  inhibitory effect on MDM2 compared with positive control compound HDM201: better
[1]
  inhibitory effect on human osteosarcoma cell line SJSA-1 compared with positive control compound HDM201: better

## COc1cc(OC2CC2)ncc1-c1nc2c(n1C(C)C)C1(C(=O)Nc3cc(Cl)ccc31)N(c1cc(Cl)ccc1C)C2=O (centres unmarked) [Example 110, 6-chloro-5′-(5-chloro-2-methylphenyl)-2′-(6-cyclopropoxy-4-methoxypyridin-3-yl)-3′-isopropyl-3′H-spiro[dihydroindole-3,4′-pyrrolo[3,4-d]imidazole]-2,6′(5′H)-dione]
MDM2
  inhibitory effect on MDM2 compared with positive control compound HDM201: better
[1]
  inhibitory effect on human osteosarcoma cell line SJSA-1 compared with positive control compound HDM201: better

## COc1cc(N(C)C)ncc1-c1nc2c(n1C(C)C)C1(C(=O)Nc3cc(Cl)ccc31)N(c1cccc(Cl)c1)C2=O (centres unmarked) [Example 113, 6-chloro-5′-(3-chlorophenyl)-2′-(6-(dimethylamino)-4-methoxypyridin-3-yl)-3′-isopropyl-3′H-spiro[dihydroindole-3,4′-pyrrolo[3,4-d]imidazole]-2,6′(5′H)-dione]
MDM2
  inhibitory effect on MDM2 compared with positive control compound HDM201: better
[1]
  inhibitory effect on human osteosarcoma cell line SJSA-1 compared with positive control compound HDM201: better

## COc1cc(OC)c(-c2nc3c(n2C(C)C)C2(C(=O)Nc4cc(Cl)ccc42)N(c2cccc(Cl)c2)C3=O)cn1 (centres unmarked) [Example 115, 6-chloro-5′-(3-chlorophenyl)-2′-(4,6-dimethoxypyridin-3-yl)-3′-isopropyl-3′H-spiro[dihydroindole-3,4′-pyrrolo[3,4-d]imidazole]-2,6′(5′H)-dione]
MDM2
  inhibitory effect on MDM2 compared with positive control compound HDM201: better
[1]
  inhibitory effect on human osteosarcoma cell line SJSA-1 compared with positive control compound HDM201: better

## CCc1cc(-c2nc3c(n2C(C)C)C2(C(=O)Nc4cc(Cl)ccc42)N(c2cc(Cl)ccc2C)C3=O)c(OC)cc1N(C)C (centres unmarked) [Example 125, 6-chloro-5′-(5-chloro-2-methylphenyl)-2′-(4-(dimethylamino)-5-ethyl-2-methoxyphenyl)-3′-isopropyl-3′H-spiro[dihydroindole-3,4′-pyrrolo[3,4-d]imidazole]-2,6′(5′H)-dione]
MDM2
  IC50: 20.8 nM
[1]
  IC50: 60.3 nM
